The subject of one data set is rat hippocampal neurons. As to the kind of experiment: Mitochondrial motility assay in axons. In kind it is cell-based. The settings on record: 50 μM, 48 hours pre-treatment. From the text:
(§1) Mitochondrial motility assay: Primary hippocampal neuronal cultures were co-transfected with mitochondrial targeted GFP (mitoGFP) and mCherry-tagged synaptophysin (mCherrySynaptophysin) to allow for the live identification of mitochondria in axons.
(§2) To test if kinetin decreases motility we examined the mobility of axonal mitochondria in hippocampal neurons. Primary hippocampal neuronal cultures were co-transfected with mitoGFP and mCherry-tagged Synaptophysin (mCherrySynaptophysin) to allow for the live identification of mitochondria in axons. […] To test the PINK1 dependency of this process, we treated control mouse C57 (PINK1 wildtype) and PINK1 knockout derived hippocampal neurons with kinetin or 9MK and imaged their mitochondria.

The test system of data set [1] is PINK1 knockout derived hippocampal neurons. Description: Mitochondrial motility assay in axons. In kind it is cell-based, mouse.
Description: as §1, §2

A further data set has as its system HeLa cells. Description: Parkin recruitment to depolarized mitochondria in HeLa cells, PINK1 form not stated. In kind it is cell-based. How it is done:
Parkin phosphorylation and mitochondrial translocation assay: HeLa cells were grown in DMEM supplemented with 10% FBS. Log phase cells were plated in 24 well plates with glass coverslips (Mattek) pretreated with fibronectin. Cells were pretreated with 50 μM of the indicated compound, followed by transfection with MitoGFP, mCherry Parkin, and full length PINK1FLAG3 in a 1:4:2 ratio using Fugene 6 (Promega). Fields of cells were selected by expression of MitoGFP (6 fields/well-3 wells/condition) and imaged at five-minute intervals following depolarization with 5 μM CCCP. Quantification was performed according to published protocols^3 and by creation of a Matlab based script.
Our ability to enhance PINK1 activity in-vitro using KTP led us to investigate means by which to achieve enhanced activity in cells expressing PINK1. […] We treated cells with either kinetin or adenine (FIG. 2A) and measured Parkin localization following mitochondrial depolarization with CCCP (FIG. 2B). HeLa cells, which have low levels of endogenous PINK1 and PARKIN, were transfected with wildtype or PINK1^G309D, mCherryParkin, and mitoGFP. After 48 hours of incubation with 25 μM adenine, kinetin or equivalent DMSO, we imaged CCCP-mediated depolarization of mitochondria (FIGS. 2C, 2D) and calculated the percentage of GFP labelled mitochondria with mCherryParkin associated (FIG. 2E). […]

The next data set deals with PINK1^wt (Homo sapiens, UniProt Q9BXM7). Description: PINK1 kinase assay with ATP analogs (autophosphorylation, TRAP1 transphosphorylation). In kind it is biochemical, H. sapiens. Also on record: kinase domain with c-terminal extension (PINK1, residues 148-581) with a C-terminal FLAG3 tag; made in house; host or cells: baculovirus / Sf21 insect cells. The settings on record: for utilization to phosphorylate TRAP1: SF21 expressed PINK1; for transphosphorylation of TRAP1, activity versus ATP: GST tagged kinase domain 156-496 expressed in E. coli. The source says: (§3) We expressed both PINK1^wt and PINK1^G309D GST tagged kinase domain (156-496PINK1) in E. coli and performed kinase assays with a series of ATP analogs.
(§4) Expression, purification and enzymatic characterization of PINK1: H. sapiens PINK1 kinase domain (PINK1, residues 156-496) with an N-terminal GST tag was expressed using a pGEX vector using standard techniques. H. sapiens PINK1 kinase domain with c-terminal extension (PINK1, residues 148-581) with a C-terminal FLAG3 tag was co-expressed with full length TRAP1 baculovirus/Sf21 insect cell system. […] The reaction was performed using 50 mM Tris-HCl, 150 mM NaCl, 10 mM MgCl2, 3 mM MnCl2, 0.5 mM DTT and 1 mg/ml substrate if indicated.
(§5) We constructed several FLAG3 tagged truncation variants of PINK1 and induced expression using baculovirus infected SF21 insect cells.
(§6) We expressed GST tagged kinase domain (PINK11156-496) in E. coli and performed a kinase assay.

The next data set has as its target PINK1^G309D (Homo sapiens, UniProt Q9BXM7, G309D). The description is as above. In kind it is biochemical, H. sapiens. On the set-up: kinase domain with c-terminal extension (PINK1, residues 148-581) with a C-terminal FLAG3 tag; made in house; host or cells: baculovirus / Sf21 insect cells. To be noted: GST tagged kinase domain 156-496 expressed in E. coli.
Description: as §3, §4, §5, §6

Substrate in data set [2]: Nc1ncnc2c1ncn2[C@@H]1O[C@H](COP(=O)(O)OP(=O)(O)OP(=O)(O)O)[C@@H](O)[C@H]1O
Description: purified protein, by the assay type. It counts as biochemical, H. sapiens. To be noted: other: catalytic constants for PINK1, nucleotide as substrate, autophosphorylation, SF21 expressed PINK1 148-581.

Where [3] appears, read: catalytic constants for PINK1, nucleotide as substrate, autophosphorylation, SF21 expressed PINK1 148-581.

Sequence of PINK1^G309D (Q9BXM7 148-581 G309D): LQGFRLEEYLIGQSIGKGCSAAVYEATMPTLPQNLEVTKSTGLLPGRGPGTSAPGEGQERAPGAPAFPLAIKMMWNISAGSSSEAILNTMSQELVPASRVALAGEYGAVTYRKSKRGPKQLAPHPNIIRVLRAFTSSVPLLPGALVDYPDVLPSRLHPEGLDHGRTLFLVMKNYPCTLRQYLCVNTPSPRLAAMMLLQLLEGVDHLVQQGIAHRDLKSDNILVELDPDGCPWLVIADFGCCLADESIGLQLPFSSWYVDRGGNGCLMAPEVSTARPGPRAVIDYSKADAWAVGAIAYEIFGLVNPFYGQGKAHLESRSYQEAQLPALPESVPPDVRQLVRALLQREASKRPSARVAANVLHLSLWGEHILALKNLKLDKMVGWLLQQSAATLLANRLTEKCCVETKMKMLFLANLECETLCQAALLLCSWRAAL

For `Cn1cnc2c(NCc3ccco3)ncnc21` [9-methyl-Kinetin, reference compound], the “mitochondrial movement / motility” value with rat hippocampal neurons is given as “did not affect mitochondrial motility”. In addition, in data set [1], the mitochondrial motility entry is on record as “no change in motility”.

On to `c1ccc(CNc2ncnc3nc[nH]c23)cc1` [N6 benzyl adenine, reference compound], for which the “Parkin recruitment to CCCP depolarized mitochondria” value in the data set with HeLa cells is reported as “less active than kinetin”.

In the case of `O=P(O)(O)OP(=O)(O)OP(=O)(O)OC[C@H]1O[C@@H](n2cnc3c(NCc4ccccc4)ncnc32)[C@H](O)[C@@H]1O` [N^6 Benzyl, N^6 Benzyl ATP, reference compound], the “utilization to phosphorylate TRAP1” value at PINK1^wt is “not”.

In the case of `O=P(O)(O)OP(=O)(O)OP(=O)(O)OC[C@H]1O[C@@H](n2cnc3c(NCCc4ccccc4)ncnc32)[C@H](O)[C@@H]1O` [N^6 Phenethyl ATP, reference compound], at PINK1^wt, the “utilization to phosphorylate TRAP1” value was “not”.

The term Km denotes the substrate concentration at which the rate is half of its maximum. Take N^6 furfuryl ATP [KTP]: at PINK1^G309D, the autophosphorylation entry is on record as “increased levels of autophosphorylation” and the “transphosphorylation of TRAP1, activity versus ATP” value is “amplified”. The “transphosphorylation of TRAP1, activity versus ATP” value on PINK1^G309D (listed as N^6 FF ATP) is “increased catalytic rate than ATP”. On PINK1^wt (FIG. 12), the “PINK1 activity stimulation versus other N6 substituted ATP analogs” value is given as “stimulated”. At PINK1^wt, the “transphosphorylation of TRAP1, activity versus ATP” value was “amplified” and the “utilization to phosphorylate TRAP1” value is on record as “utilizes”. Also, the “transphosphorylation of TRAP1, activity versus ATP” value at PINK1^wt (listed as N^6 FF ATP) is “more efficiently than ATP”. Moreover, the “fold higher Vmax versus ATP” value at PINK1^wt (PINK1 autophosphorylation) amounted to 1.84 fold. On PINK1^wt (setting [3]), the Km came out at 51.7 µM and the Vmax came out at 0.0098 ± 0.002 min⁻¹.

B1: PINK1^wt (Homo sapiens) (protein)
chain: LQGFRLEEYLIGQSIGKGCSAAVYEATMPTLPQNLEVTKSTGLLPGRGPGTSAPGEGQERAPGAPAFPLAIKMMWNISAGSSSEAILNTMSQELVPASRVALAGEYGAVTYRKSKRGPKQLAPHPNIIRVLRAFTSSVPLLPGALVDYPDVLPSRLHPEGLGHGRTLFLVMKNYPCTLRQYLCVNTPSPRLAAMMLLQLLEGVDHLVQQGIAHRDLKSDNILVELDPDGCPWLVIADFGCCLADESIGLQLPFSSWYVDRGGNGCLMAPEVSTARPGPRAVIDYSKADAWAVGAIAYEIFGLVNPFYGQGKAHLESRSYQEAQLPALPESVPPDVRQLVRALLQREASKRPSARVAANVLHLSLWGEHILALKNLKLDKMVGWLLQQSAATLLANRLTEKCCVETKMKMLFLANLECETLCQAALLLCSWRAAL
notes: kinase domain with c-terminal extension (PINK1, residues 148-581) with a C-terminal FLAG3 tag; made in house; host or cells: baculovirus / Sf21 insect cells
By kcat is commonly meant the number of substrate molecules converted per active site and unit of time at saturation. In the case of B1, in data set [2], the Km turned out to be 18.4 µM and the kcat amounted to 8.83e-05 ± 1.7e-05 s⁻¹.

(Values after US11427588B2, “Compositions and methods for treating neurodegenerative diseases and cardiomyopathy” (THE REGENTS OF THE UNIVERSITY OF CALIFORNIA, priority 2013, dated 2022).)
